In patent US20210198685A1, “PLANTS CONTAINING ELITE EVENT EE-GM4 AND METHODS AND KITS FOR IDENTIFYING SUCH EVENT IN BIOLOGICAL SAMPLES, AND TREATMENT THEREOF” (priority 2018, published 2021):

Tested on: soybean plants containing event EE-GM4
Experiment: HPPD inhibitor herbicide tolerance field trials on soybean plants containing EE-GM4
Format: in vivo, Glycine max
Conditions: for average maximum phytotoxicity: plants with EE-GM4; for tolerance / crop damage of plants with EE-GM4, herbicide applied post-emergence / tolerance of plants with EE-GM4 to herbicide applied pre-emergence: field, 2 years; for tolerance / crop damage of plants with EE-GM4, herbicide applied post-emergence: post-emergence at V2-V3 stage with crop oil concentrate and ammonium sulfate, 2x dose (210 gr/ha); for tolerance of plants with EE-GM4 to herbicide applied pre-emergence: 4x dose (420 gr/ha IFT, 840 gr/ha mesotrione)
Source text: Numbers in ( ) below a treatment give the number of trials included in the bar, the number on top of each bar gives the average maximum phytotoxicity value for that treatment. Treatments applied were: IFT=isoxaflutole, MST=mesotrione, PE=pre-emergence, PO=post-emergence (at V2-V3 stage, with adjuvants crop oil concentrate and ammonium sulfate added to increase herbicide activity). Rates shown are in gram active ingredient/hectare (4× dose in pre-emergence, 2× dose in post-emergence).
Tolerance of plants comprising EE-GM4 to HPPD inhibitor herbicides was tested at different locations in the field over 2 years. […] All post-emergence treatments were at the V2-V3 stage, with adjuvants crop oil concentrate and ammonium sulfate added to increase herbicide activity.
The “maximum phytotoxicity” as used herein is the highest phytotoxicity rating recorded at any observation during the duration of a trial (with 3 to 4 observations per trial). In existing weed control applications, a normal (1×) dose for isoxaflutole (IFT) in pre- or post-emergence application and for MST in post-emergence application is 105 gr/ha, and a normal (1×) dose for mesotrione in pre-emergence application is 210 gr/ha.
Also, in several field trials across 2 years, soybean plants with event EE-GM4 had good tolerance towards experimental HPPD inhibitor compound 2-methyl-N-(5-methyl-1,3,4-oxadiazol-2-yl)-3-(methylsulfonyl)-4-(trifluoromethyl)benzamide (U.S. Pat. No. 9,101,141) when applied pre-emergence at 400 gr ai/ha or post-emergence at 200 gr ai/ha, respectively (the average maximum phytotoxicity value for each treatment was below 20%). […] All post-emergence treatments were at the V2-V3 stage, with adjuvants crop oil concentrate and ammonium sulfate added to increase herbicide activity.

Structure (SMILES): CSc1c(C(F)(F)F)ccc(C(=O)Nc2nnnn2C)c1Cl [2-chloro-3-(methylsulfanyl)-N-(1-methyl-1H-tetrazol-5-yl)-4-(trifluoromethyl)benzamide]
- average maximum phytotoxicity (post-emergence at 100-150 gr ai/ha, V2-V3 stage with adjuvants): 30%

Structure (SMILES): Cc1nnc(NC(=O)c2ccc(C(F)(F)F)c(S(C)(=O)=O)c2C)o1 [2-methyl-N-(5-methyl-1,3,4-oxadiazol-2-yl)-3-(methylsulfonyl)-4-(trifluoromethyl)benzamide]
- average maximum phytotoxicity (post-emergence at 200 gr ai/ha, V2-V3 stage with adjuvants): below 20%
- average maximum phytotoxicity (pre-emergence at 400 gr ai/ha, field trials across 2 years): below 20%

Structure (SMILES): CS(=O)(=O)c1cc(C(F)(F)F)ccc1C(=O)c1cnoc1C1CC1 [isoxaflutole, (5-cyclopropyl-4-isoxazolyl)[2-(methylsulfonyl)-4-(trifluoromethyl)phenyl]methanone]
- tolerance / crop damage of plants with EE-GM4, herbicide applied post-emergence: crop damage was a bit higher
- tolerance of plants with EE-GM4 to herbicide applied pre-emergence: commercially relevant tolerance

Structure (SMILES): CS(=O)(=O)c1ccc(C(=O)C2C(=O)CCCC2=O)c([N+](=O)[O-])c1 [mesotrione, 2-[4-(Methylsulfonyl)-2-nitrobenzoyl]cyclohexane-1,3-dione]
- tolerance / crop damage of plants with EE-GM4, herbicide applied post-emergence: commercially relevant tolerance
- tolerance of plants with EE-GM4 to herbicide applied pre-emergence: commercially relevant tolerance
